Reference: patent EP1585727B1, “INDOLES USEFUL IN THE TREATMENT OF ANDROGEN-RECEPTOR RELATED DISEASES” (priority 2002, dated 2004)

Target: T1, human androgen receptor (Homo sapiens, UniProt P10275)
T1 construct: expressed in transfected cells; host or cells: Chinese hamster ovary (CHO) cells, cell line CHO-AR-pMMTV-LUC 1G12-A5-CA
T1 sequence (P10275 1-920): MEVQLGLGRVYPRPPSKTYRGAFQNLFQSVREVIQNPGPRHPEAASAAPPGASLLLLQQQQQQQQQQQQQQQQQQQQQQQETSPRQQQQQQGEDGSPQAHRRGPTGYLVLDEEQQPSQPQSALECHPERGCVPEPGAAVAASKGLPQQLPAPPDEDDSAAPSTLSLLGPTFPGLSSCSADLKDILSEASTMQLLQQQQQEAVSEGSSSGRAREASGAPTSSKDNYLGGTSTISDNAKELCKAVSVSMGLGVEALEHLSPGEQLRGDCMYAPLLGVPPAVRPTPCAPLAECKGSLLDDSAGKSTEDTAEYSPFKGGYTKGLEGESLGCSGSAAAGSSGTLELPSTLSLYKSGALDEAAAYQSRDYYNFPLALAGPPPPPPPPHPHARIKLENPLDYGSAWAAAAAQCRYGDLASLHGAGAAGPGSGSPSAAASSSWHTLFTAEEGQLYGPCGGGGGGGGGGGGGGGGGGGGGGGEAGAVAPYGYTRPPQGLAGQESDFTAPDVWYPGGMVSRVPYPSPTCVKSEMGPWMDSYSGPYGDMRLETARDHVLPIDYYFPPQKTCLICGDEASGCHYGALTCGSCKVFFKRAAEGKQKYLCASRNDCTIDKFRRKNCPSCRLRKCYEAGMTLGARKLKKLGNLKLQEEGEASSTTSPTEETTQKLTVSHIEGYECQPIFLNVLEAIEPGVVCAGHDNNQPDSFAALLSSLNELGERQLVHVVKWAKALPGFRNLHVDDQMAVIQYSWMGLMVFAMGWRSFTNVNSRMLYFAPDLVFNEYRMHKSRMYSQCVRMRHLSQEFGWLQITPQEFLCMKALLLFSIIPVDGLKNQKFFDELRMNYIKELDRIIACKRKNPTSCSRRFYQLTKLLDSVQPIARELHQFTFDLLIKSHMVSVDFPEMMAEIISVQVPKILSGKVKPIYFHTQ
Experiment: Androgen receptor transactivation assay, androgenic activity in the presence of 0.1 µmol/l onapristone (CHO-AR-pMMTV-LUC cells; Table 5)
Assay type: cell-based
Settings: for ago efficacy: maximal intrinsic activity in the presence of 100 nM DHT set at 1.00; for ago potency: potency expressed as percentage of DHT activity
Procedure: The androgenic activity (EC50, potency, and efficacy) of the compounds in Table 5 was determined in an in vitro bioassay of Chinese hamster ovary (CHO) cells stably transfected with the human androgen receptor expression plasmid and a reporter plasmid in which the MMTV promotor is linked to the luciferase reporter gene. The cell line CHO-AR-pMMTV-LUC 1G12-A5-CA is described in Schoonen et al. (J. Steroid Biochem. Molec. Biol. […]; 74: 213-222). The androgen receptor activity of compounds was determined in the presence of 0.1 µmol/l onapristone. The maximal efficacy in the presence of 100 nmol/l DHT was set as 100%. The potencies are expressed as percentage of DHT activity. Table 5 Androgen receptor activity

SMILES	ago efficacy	ago potency
CCC(=O)Nc1ccc2c(Sc3ccccc3[N+](=O)[O-])cn(Cc3cc(F)cc(F)c3)c2c1 [Compound 99, N-[1-(3,5-Difluoro-benzyl)-3-(2-nitro-phenylsulfanyl)-1H-indol-6-yl]-propionamide]	+ (between 0.50 and 0.80)	± (between 0.1 % and 1%)
CNC(=O)c1ccc2c(Sc3ccccc3[N+](=O)[O-])cn(Cc3cccnc3)c2c1 [Compound 112, 3-(2-Nitro-phenylsulfanyl)-1-pyridin-3-ylmethyl-1H-indole-6-carboxylic acid methylamide]	± (between 0.20 and 0.50)	+ (between 1% and 5%)
COc1ccc2c(Sc3ccccc3[N+](=O)[O-])cn(Cc3ccncn3)c2c1 [Compound 116, 6-Methoxy-3-(2-nitro-phenylsulfanyl)-1-pyrimidin-4-ylmethyl-1H-indole]	+ (between 0.50 and 0.80)	+ (between 1% and 5%)
N#Cc1ccc2c(Sc3ccccc3[N+](=O)[O-])cn(Cc3ccncc3)c2c1 [Compound 122, 3-(2-Nitro-phenylsulfanyl)-1-pyridin-4-ylmethyl-1H-indole-6-carbonitrile]	+ (between 0.50 and 0.80)	+ (between 1% and 5%)
CCNC(=O)c1ccc2c(Sc3ccccc3[N+](=O)[O-])cn(Cc3cccnc3)c2c1 [Compound 113, 3-(2-Nitro-phenylsulfanyl)-1-pyridin-3-ylmethyl-1H-indole-6-carboxylic acid ethylamide]	+ (between 0.50 and 0.80)	+ (between 1% and 5%)
O=C(Nc1ccc2c(Sc3ccccc3[N+](=O)[O-])cn(Cc3cc(F)cc(F)c3)c2c1)C(F)F [Compound 98, N-[1-(3,5-Difluoro-benzyl)-3-(2-nitro-phenylsulfanyl)-1H-indol-6-yl]-2,2-difluoro-acetamide]	+ (between 0.50 and 0.80)	++ (>5%)
COc1ccc2c(Sc3ccccc3[N+](=O)[O-])cn(Cc3ccc(Cl)nc3)c2c1 [Compound 96, 1-(6-Chloro-pyridin-3-ylmethyl)-6-methoxy-3-(2-nitro-phenylsulfanyl)-1H-indole]	± (between 0.20 and 0.50)	± (between 0.1 % and 1%)
N#Cc1ccc2c(Sc3ccccc3[N+](=O)[O-])cn(Cc3cccnc3)c2c1 [Compound 121, 3-(2-Nitro-phenylsulfanyl)-1-pyridin-3-ylmethyl-1H-indole-6-carbonitrile]	++ (≥0.80)	+ (between 1% and 5%)
O=C(CF)Nc1ccc2c(Sc3ccccc3[N+](=O)[O-])cn(Cc3cc(F)cc(F)c3)c2c1 [Compound 97, N-[1-(3,5-Difluoro-benzyl)-3-(2-nitro-phenylsulfanyl)-1H-indol-6-yl]-2-fluoro-acetamide]	++ (≥0.80)	+ (between 1% and 5%)
CS(=O)(=O)Nc1ccc2c(Sc3ccccc3[N+](=O)[O-])cn(Cc3cc(F)cc(F)c3)c2c1 [Compound 106, N-[1-(3,5-Difluoro-benzyl)-3-(2-nitro-phenylsulfanyl)-1H-indol-6-yl]-methanesulfonamide]	++ (≥0.80)	+ (between 1% and 5%)
CN(C)C(=O)c1ccc2c(Sc3ccccc3[N+](=O)[O-])cn(Cc3ccccn3)c2c1 [Compound 109, 3-(2-Nitro-phenylsulfanyl)-1-pyridin-2-ylmethyl-1H-indole-6-carboxylic acid dimethylamide]	++ (≥0.80)	+ (between 1% and 5%)
CC(=O)Nc1ccc2c(Sc3ccccc3[N+](=O)[O-])cn(Cc3cccnc3)c2c1 [Compound 103, N-[3-(2-Nitro-phenylsulfanyl)-1-pyridin-3-ylmethyl-1H-indol-6-yl]-acetamide]	+ (between 0.50 and 0.80)	+ (between 1% and 5%)
Cn1cnc(S(=O)(=O)Nc2ccc3c(Sc4ccccc4[N+](=O)[O-])cn(Cc4cc(F)cc(F)c4)c3c2)c1 [Compound 108, 1-Methyl-1H-imidazole-4-sulfonic acid [1-(3,5-difluoro-benzyl)-3-(2-nitro-phenylsulfanyl)-1H-indol-6-yl]-amide]	++ (≥0.80)	+ (between 1% and 5%)
O=C(NC1CC1)c1ccc2c(Sc3ccccc3[N+](=O)[O-])cn(Cc3cccnc3)c2c1 [Compound 114, 3-(2-Nitro-phenylsulfanyl)-1-pyridin-3-ylmethyl-1H-indole-6-carboxylic acid cyclopropylamide]	++ (≥0.80)	+ (between 1% and 5%)
N#Cc1ccc2c(Sc3ccccc3[N+](=O)[O-])cn(Cc3ccncn3)c2c1 [Compound 124, 3-(2-Nitro-phenylsulfanyl)-1-pyrimidin-4-ylmethyl-1H-indole-6-carbonitrile]	++ (≥0.80)	++ (>5%)
COc1ccc2c(Sc3ccccc3[N+](=O)[O-])cn(Cc3cncnc3)c2c1 [Compound 115, 6-Methoxy-3-(2-nitro-phenylsulfanyl)-1-pyrimidin-5-ylmethyl-1H-indole]	+ (between 0.50 and 0.80)	++ (>5%)
COc1ccc2c(Sc3ccccc3[N+](=O)[O-])cn(Cc3cc(F)c(F)c(F)c3)c2c1 [Compound 94, 6-Methoxy-3-(2-nitro-phenylsulfanyl)-1-(3,4,5-trifluoro-benzyl)-1H indole]	++ (≥0.80)	+ (between 1% and 5%)
CC(=O)Nc1ccc2c(Sc3ccccc3[N+](=O)[O-])cn(Cc3ccccn3)c2c1 [Compound 101, N-[3-(2-Nitro-phenylsulfanyl)-1-pyridin-2-ylmethyl-1H-indol-6-yl]-acetamide]	+ (between 0.50 and 0.80)	+ (between 1% and 5%)
COc1ccc2c(Sc3ccccc3[N+](=O)[O-])cn(Cc3cnccn3)c2c1 [Compound 117, 6-Methoxy-3-(2-nitro-phenylsulfanyl)-1-pyrazin-2-ylmethyl-1H-indole]	+ (between 0.50 and 0.80)	+ (between 1% and 5%)
Cl.N#Cc1ccc2c(Sc3ccccc3[N+](=O)[O-])cn(Cc3ccccn3)c2c1 [Compound 120, 3-(2-Nitro-phenylsulfanyl)-1-pyridin-2-ylmethyl-1H-indole-6-carbonitrile monohydrochloride]	++ (≥0.80)	++ (>5%)
CCC(=O)Nc1ccc2c(Sc3ccccc3[N+](=O)[O-])cn(Cc3cccnc3)c2c1 [Compound 105, N-[3-(2-Nitro-phenylsulfanyl)-pyridin-3-ylmethyl-1H-indol-6-yl]-propionamide]	± (between 0.20 and 0.50)	+ (between 1% and 5%)
O=C(CF)Nc1ccc2c(Sc3ccccc3[N+](=O)[O-])cn(Cc3ccccn3)c2c1 [Compound 100, 2-Fluoro-N-[3-(2-nitro-phenylsulfanyl)-1-pyridin-2-ylmethyl-1H-indol-6-yl]-acetamide]	++ (≥0.80)	+ (between 1% and 5%)
N#Cc1ccc2c(Sc3ccccc3[N+](=O)[O-])cn(Cc3ccccn3)c2c1 [Compound 119, 3-(2-Nitro-phenylsulfanyl)-1-pyridin-2-ylmethyl-1H-indole-6-carbonitrile]	++ (≥0.80)	++ (>5%)
